One compound from ChEMBL document CHEMBL5209562, “Label-free detection of transporter activity via GPCR signalling in living cells: A case for SLC29A1, the equilibrative nucleoside transporter 1” (Sci Rep, 2019) can be followed below.

pIC50: −log10 of the molar value.

The target in the experiment is T1, Equilibrative nucleoside transporter 1 (Homo sapiens, UniProt Q99808).
T1 sequence (Q99808 whole entry): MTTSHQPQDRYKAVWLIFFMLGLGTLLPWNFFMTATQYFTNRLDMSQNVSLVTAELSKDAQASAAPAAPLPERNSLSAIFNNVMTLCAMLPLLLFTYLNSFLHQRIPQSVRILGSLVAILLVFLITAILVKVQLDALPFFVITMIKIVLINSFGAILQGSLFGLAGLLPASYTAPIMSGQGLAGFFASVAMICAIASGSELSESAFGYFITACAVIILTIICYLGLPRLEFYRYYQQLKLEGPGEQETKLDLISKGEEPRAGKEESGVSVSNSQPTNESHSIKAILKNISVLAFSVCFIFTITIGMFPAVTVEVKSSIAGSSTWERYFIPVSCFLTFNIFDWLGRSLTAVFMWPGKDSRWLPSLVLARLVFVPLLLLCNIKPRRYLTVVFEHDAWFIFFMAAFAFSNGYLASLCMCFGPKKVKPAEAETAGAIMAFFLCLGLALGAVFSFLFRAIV
Kind of experiment: Inhibition of the equilibrative nucleoside transporter (ENT1, SLC29A1) as assessed by GPCR-mediated changes in cell morphology using the impedance-based transporter activity through receptor activation (TRACT) assay (PubChem AID: 1745861). In kind it is functional, U2OS.

As usually defined, the pIC50 is the IC50 on a negative log10 scale, so that one unit is a factor of ten. Lower therefore signals a large IC50. `NC(=O)C1CN(CCCCC(c2ccc(F)cc2)c2ccc(F)cc2)CCN1CC(=O)Nc1c(Cl)cc(N)cc1Cl` (stereo unspecified) [DRAFLAZINE]: the pIC50 was 8.28.
